Molecules are shown by their SMILES. Converted amounts (≈) assume the structure as drawn.

The conditions of test [1]: Bringmann, et al., DE 41 17 080; cited from earlier work.
For test [2] the following is noted: Sharma, et al., 1975; cited from earlier work.
The subject of a further test is Plasmodium falciparum. Nature of the test: in vitro antimalarial activity, 3H-hypoxanthine incorporation, P. falciparum (strain NF 54/64, clone A1A9) in human erythrocytes. It is filed as cell-based. Conditions: averages of 6 repeat tests. The method, then: This example illustrates the antimalarial activity of the korupensamines of the present invention. […] Continuous in vitro cultures of asexual erythrocytic stages of P. falciparum (strain NF 54/64, clone A1A9) were maintained following essentially the method of Trager and Jensen (Science, 193, 673-675, 1976) at 37° C. under an atmosphere of 5% CO2, 5% O2, and 90% N2. The host cells were human erythrocytes (A or O Rh+). The culture medium was RPMI 1640 (Gibco), containing HEPES (BDH; 4.57 gL^-1) glucose (Sigma; 1.54 gL^-1), 5% NaHCO3 (Merck; 34.78 mlL^-1),and gentamycin (Merck; 8.70 mlL^-1) supplemented with 10% human plasma (A Rh+). Parasites were subinoculated every 3-4 days with initial conditions of 1% parasitemia and 1% hematocrit.
In vitro testing with P. falciparum was as follows. Each compound was dissolved in DMSO at a concentration of 20 mg ml^-1. These solutions were further diluted with physiological saline to obtain a stock solution of 500 μg ml^-1. […]
The test protocol was performed in vitro, based upon the method of Desjardins, et al. (Antimicrobial Agents Chemother., 16, 710-718, 1979). […] The filter papers were dried for 2 h at 52° C. and their radioactivity was measured by liquid scintillation counting in Optiscint HiSafe (LKB Pharmacia).
The mean results, obtained as counts per min (cpm), were expressed as percentages of incorporation or growth inhibition. […]

The test system of another test is Plasmodium berghei. Nature of the test: in vitro antimalarial activity, 3H-hypoxanthine incorporation, P. berghei (Anka strain). It is filed as cell-based. Conditions: averages of 6 repeat tests.
A further test concerns P. berghei (Anka strain). Nature of the test: in vivo antimalarial activity in P. berghei-infected OF1 mice, parasitemia from blood smears after 4 days. Here is the method:
Outbred, female, six-week-old OF1 mice (six mice per group treated and nontreated [control]) were inoculated intraperitoneally on day 0 with 10^6 P. berghei (Anka strain) blood forms. Two hours later, they were administered orally 50 mg/kg of korupensamine A. A second, third, and fourth treatment (50 mg/kg each) was given after 24, 48, and 72 h respectively (days 1, 2, and 3). […] The parasitemia (%) in the control (not drug treated) group was 2.45 (range 2.21-2.69; N=6) compared to 0.69 (range 0.48-0.91; N=6) for the treated group.

Another test concerns Spodoptera littoralis. To be noted: larvae of Spodoptera littoralis; Grimm 1992; Bringmann 1992; cited from earlier work.
The conditions of test [3]: Ruangrungsi, et al., 1985; cited from earlier work.

For `COc1cc(C)cc2ccc(-c3ccc4c(c3O)[C@@H](C)N[C@H](C)C4)c(O)c12` [Dioncophylline B], in test [1], the activity as fungicides result is reported as “active as fungicides”.

On to `COc1cc2c(c(OC)c1-c1c(C)cc3cccc(OC)c3c1O)C(C)=N[C@@H](C)C2` [ancistrocladidine], for which, in test [2], the spasmolytic activity entry is “pronounced spasmolytic activity”. Consider `COc1cc(C)cc2c(-c3c(O)cc(O)c4c3C[C@@H](C)N[C@@H]4C)ccc(O)c12` [korupensamine A], for which the IC50 in the test with Plasmodium falciparum (Plasmodium falciparum, Erythrocyte, NP54/64, clone A1A9, read-out: IC50 P. faciparum) came to 0.307 µg/mL (≈ 0.809 µM); in the test on Plasmodium berghei (Plasmodium berghei), 0.555 µg/mL (≈ 1.46 µM). Also, in the test with P. berghei (Anka strain) (50 mg/kg orally x4 (2 h after inoculation, then 24, 48, 72 h), after 4 days, N=6, control 2.45 (range 2.21-2.69; N=6)), the “parasitemia (%) in the treated group” value is reported as 0.69 (range 0.48-0.91; N=6) %. Moreover, the “inhibition of the development of P. berghei erythrocytic forms” value with P. berghei (Anka strain) (50 mg/kg orally x4, blood smears after 4 days) is reported as “marked inhibition of the development of P. berghei erythrocytic forms”. In the case of `COc1cccc2c(-c3ccc4c(c3O)C(C)NC(C)C4)c(C)cc(OC)c12` (centres unmarked) [dioncophylline A], the antifeedant effect entry with Spodoptera littoralis is on record as “antifeedant effect against the larvae of Spodoptera littoralis”. Moreover, in test [1], the activity as fungicides entry is “active as fungicides”. On to `COc1cc(C)cc2c(-c3c(O)cc(O)c4c3C[C@@H](C)N[C@@H]4C)ccc(O)c12` [korupensamine B], for which, in the test on Plasmodium falciparum (NP54/64, clone A1A9), the “IC50 P. faciparum” value turned out to be 0.175 µg/mL (≈ 0.461 µM). Besides, the “IC50 P. berghei” value with Plasmodium berghei is 0.490 µg/mL (≈ 1.29 µM).

As for `COc1cc2c(c(OC)c1-c1c(C)cc3cccc(OC)c3c1O)[C@@H](C)N(C)[C@@H](C)C2` [ancistrotectorine], the antitumor activity result in test [3] is reported as “antitumor activity”.

Broadly, the IC50 is the point on the concentration scale where inhibition reaches its midpoint.

The values above are taken from patent publication US5409938A, “Antimalarial korupensamines and pharmaceutical compositions and medical uses thereof” (The United States of America as represented by the …, priority 1994, dated 1995).
